Source: patent US12673947B2 (Cytosinlab Therapeutics Co., Ltd., priority 2020, dated 2026)

Columns and labels:
FLT3 = molecular target: T1, FLT3 (Homo sapiens, UniProt P36888); test: FLT3 kinase in vitro inhibitory activity experiment (Caliper mobility shift, conversion rate); format: biochemical; conditions: IC50 class, read-out: Enzyme activity FLT3
T1 construct: purchased Carna 08-145
T1 sequence (P36888 27-993): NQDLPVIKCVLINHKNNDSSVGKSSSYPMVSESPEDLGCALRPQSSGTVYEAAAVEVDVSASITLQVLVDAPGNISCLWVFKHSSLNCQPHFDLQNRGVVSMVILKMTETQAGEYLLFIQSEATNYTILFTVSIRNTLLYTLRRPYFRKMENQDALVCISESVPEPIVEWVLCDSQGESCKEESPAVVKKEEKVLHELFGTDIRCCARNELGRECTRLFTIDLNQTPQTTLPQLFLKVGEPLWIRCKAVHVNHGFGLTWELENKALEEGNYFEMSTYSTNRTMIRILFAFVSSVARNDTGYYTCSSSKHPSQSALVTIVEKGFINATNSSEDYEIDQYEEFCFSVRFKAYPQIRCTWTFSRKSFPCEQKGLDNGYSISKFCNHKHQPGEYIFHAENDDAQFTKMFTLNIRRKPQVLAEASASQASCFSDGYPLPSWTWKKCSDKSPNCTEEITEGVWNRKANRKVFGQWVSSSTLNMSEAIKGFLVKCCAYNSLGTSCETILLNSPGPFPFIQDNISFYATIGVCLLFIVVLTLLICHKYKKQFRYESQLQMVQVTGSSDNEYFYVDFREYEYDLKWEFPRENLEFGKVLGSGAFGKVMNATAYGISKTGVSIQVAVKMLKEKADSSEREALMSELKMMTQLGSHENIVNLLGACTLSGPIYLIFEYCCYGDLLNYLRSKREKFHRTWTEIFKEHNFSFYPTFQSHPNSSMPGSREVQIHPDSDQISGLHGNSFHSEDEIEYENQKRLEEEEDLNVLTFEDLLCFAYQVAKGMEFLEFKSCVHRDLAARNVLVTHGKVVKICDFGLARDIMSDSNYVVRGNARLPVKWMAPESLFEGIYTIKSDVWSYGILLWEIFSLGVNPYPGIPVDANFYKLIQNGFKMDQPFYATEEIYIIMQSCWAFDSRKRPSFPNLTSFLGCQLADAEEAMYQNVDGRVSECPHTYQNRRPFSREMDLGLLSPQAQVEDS
Summary of the method: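 Tested in single wells as ten 3-fold dilutions of a 1 μM initial stock. Compound and FLT3 stood 10 min at room temperature; ATP with Kinase substrate 2 was then added for 30 min at room temperature and the reaction stopped. Conversion was measured by Caliper mobility shift, and inhibition was normalised to control-well conversion.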

MV4;11 cells = test: MV4;11 in vitro inhibition of proliferation assay (CellTiter-Glo, 72 hours); format: cell-based; conditions: Homo sapiens, MV4-11, 72 h, IC50 class, read-out: Inhibitory activity of cell proliferation MV4;11
Description: Biological Test Example 2: MV4;11 In Vitro Inhibition of Proliferation Assay
The MV4;11 cell lines were purchased from the cell bank of the Chinese Academy of Sciences, IMDM medium (Gibco, catalog number 12440), fetal bovine serum (Gibco, catalog number 10099141C), penicillin-streptomycin antibiotics (Gibco, catalog number 15140122), DMSO (Sigma, catalog number D2650), Celltiter-Glo kit (CTG) (Promega, catalog number G7573), 384-well clear flat-bottom black cell culture plate (Corning, catalog number 3764), D300e digital dispenser (Tecan, catalog number D300e), SpectraMax i3x microplate reader (MOLECULAR DEVICES, catalog number i3x)
MV4;11 cell was cultivated in IMDM, 10% fetal bovine serum, 1% penicillin-streptomycin antibiotics, and cell density was kept less than 1.0*10E6 cells per ml to ensure that it was always in logarithmic growth phase. Cell viability was greater than 95%.
The compounds to be tested was diluted by 3 times from 10 uM with DMSO to 9 concentrations. 60 nl diluted compound was added to the cell culture plate and three duplicates were set up.
The prepared MV4;11 cell suspension was added to the 384-well plate, and 20 microliters of cell suspension was added per well, i.e., each well contained 2000 MV4;11 cells, of which the final concentration of DMSO was 0.3%. The cell culture plate was placed in 37° C. and incubated in a 5% carbon dioxide incubator for 72 hours.
20 μL of Promega CellTiter-Glo reagent was added to per well, and the plate was incubated at room temperature for 10 minutes when the luminescence signals were stable. SpectraMax i3x microplate reader was used to read signals.
The original data was converted into inhibition rate, and the IC50 value (half inhibition concentration) of the compound was determined by fitting the nonlinear four-parameter curve.

Compound	IC50 (FLT3)	IC50 (MV4;11 cells)
CCc1nc2c(N)ncc(-c3cnn(C4C[C@H]5CC[C@@H](C4)N5CC(C)C)c3)c2nc1N[C@@H]1CC[C@H](O)C1 (some centres unmarked) [Compound 167]	≤ 10 nM	≤ 10 nM
CCc1nc2c(N)ncc(-c3cnn(C4C[C@H]5CC[C@@H](C4)N5S(C)(=O)=O)c3)c2nc1N[C@@H]1CC[C@H](O)C1 (some centres unmarked) [Compound 168]	≤ 10 nM	≤ 10 nM
CCc1nc2c(N)ncc(-c3cnn(C4CC(C)(C)N(C)C(C)(C)C4)c3)c2nc1N[C@@H]1CC[C@H](O)C1 [Compound 169, (1S,3R)-3-((5-amino-3-ethyl-8-(1-(1,2,2,6,6-pentamethylpiperidine-4-yl)-1H-pyrazol-4-yl)pyridino[3,4-b]pyrazine-2-yl)amino)cyclopentan-1-ol]	≤ 10 nM	≤ 10 nM
CCc1nc2c(N)ncc(-c3cnn(C4CCN(c5cccnc5)CC4)c3)c2nc1N[C@@H]1CC[C@H](O)C1 [Compound 170]	≤ 10 nM	≤ 10 nM
CCc1nc2c(N)ncc(-c3cnn(C4CCN(c5ccnc(C)c5)CC4)c3)c2nc1N[C@@H]1CC[C@H](O)C1 [Compound 171]	≤ 10 nM	≤ 10 nM
CCc1nc2c(N)ncc(-c3cnn(C4CCN(c5ccncn5)CC4)c3)c2nc1N[C@@H]1CC[C@H](O)C1 [Compound 172]	≤ 10 nM	≤ 10 nM
CCc1nc2c(N)ncc(-c3cnn(C4CCN(c5ccnc(C)n5)CC4)c3)c2nc1N[C@@H]1CC[C@H](O)C1 [Compound 174]	≤ 10 nM	≤ 10 nM
CCc1nc2c(N)ncc(-c3cnn(C4CCN(c5cccnn5)CC4)c3)c2nc1N[C@@H]1CC[C@H](O)C1 [Compound 175]	≤ 10 nM	≤ 10 nM
CCc1nc2c(N)ncc(-c3cnn(-c4ccccc4)c3)c2nc1N[C@@H]1CC[C@H](O)C1 [Compound 176]	≤ 10 nM	10 to 100 nM
CCc1nc2c(N)ncc(-c3cnn(-c4ccc(C)nc4)c3)c2nc1N[C@@H]1CC[C@H](O)C1 [Compound 177, (1S,3R)-3-((5-amino-3-ethyl-8-(1-(6-methylpyridin-3-yl)-1H-pyrazol-4-yl)pyridino[3,4-b]pyrazin-2-yl)amino)cyclopentan-1-ol]	≤ 10 nM	≤ 10 nM
CCc1nc2c(N)ncc(-c3cnn(-c4ccc(F)cc4F)c3)c2nc1N[C@@H]1CC[C@H](O)C1 [Compound 178]	≤ 10 nM	≤ 10 nM
CCc1nc2c(N)ncc(-c3cnn(-c4ccncn4)c3)c2nc1N[C@@H]1CC[C@H](O)C1 [Compound 179]	≤ 10 nM	≤ 10 nM
CCc1nc2c(N)ncc(-c3cnn(-c4ccnc(C)n4)c3)c2nc1N[C@@H]1CC[C@H](O)C1 [Compound 180, (1S,3R)-3-((5-amino-3-ethyl-8-(1-(2-methylpyrimidin-4-yl)-1H-pyrazol-4-yl)pyridino[3,4-b]pyrazin-2-yl)amino)cyclopentan-1-ol]	≤ 10 nM	≤ 10 nM
CCc1nc2c(N)ncc(-c3cnn(C4CCN(CC(C)(C)O)CC4)c3)c2nc1N[C@@H]1CC[C@H](O)C1 [Compound 181]	≤ 10 nM	≤ 10 nM
CCc1nc2c(N)ncc(-c3cnn(C4CCN(CC(C)C)CC4)c3)c2nc1N[C@@H]1CC[C@H](O)C1 [Compound 182]	≤ 10 nM	≤ 10 nM
CCc1nc2c(N)ncc(-c3cnn(C4CCN(C(C)CC)CC4)c3)c2nc1N[C@@H]1CC[C@H](O)C1 (some centres unmarked) [Compound 183]	≤ 10 nM	≤ 10 nM

Further lines, results first:

IC50 (FLT3)	IC50 (MV4;11 cells)	Compound
≤ 10 nM	≤ 10 nM	CCc1nc2c(N)ncc(-c3cnn(C4CCN(C(CC)CC)CC4)c3)c2nc1N[C@@H]1CC[C@H](O)C1 [Compound 184]
≤ 10 nM	≤ 10 nM	CCc1nc2c(N)ncc(-c3cnn(C4CCN(C(=O)C(C)C)CC4)c3)c2nc1N[C@@H]1CC[C@H](O)C1 [Compound 185, 1-(4-(4-(5-amino-3-ethyl-2-(((1R,3S)-3-hydroxycyclopentyl)amino)pyridino[3,4-b]pyrazin-8-yl)-1H-pyrazol-1-yl)piperidin-1-yl)-2-methylpropyl-1-one]
≤ 10 nM	≤ 10 nM	CCc1nc2c(N)ncc(-c3cnn(C4CCN(S(C)(=O)=O)CC4)c3)c2nc1N[C@@H]1CC[C@H](O)C1 [Compound 186]
≤ 10 nM	≤ 10 nM	CCc1nc2c(N)ncc(-c3cnn(C4CCN(S(=O)(=O)C(C)C)CC4)c3)c2nc1N[C@@H]1CC[C@H](O)C1 [Compound 187, (1S,3R)-3-((5-amino-3-ethyl-8-(1-(1-(isopropylsulfonyl)piperidin-4-yl)-1H-pyrazol-4-yl)pyridino[3,4b]pyrazin-2-yl)amino)cyclopentan-1-ol]
≤ 10 nM	≤ 10 nM	CCc1nc2c(N)ncc(-c3cnn(C4CCN(S(=O)(=O)CC(C)C)CC4)c3)c2nc1N[C@@H]1CC[C@H](O)C1 [Compound 188]
≤ 10 nM	≤ 10 nM	CCc1nc2c(N)ncc(-c3cnn(C4CCN(C(=O)NC(C)C)CC4)c3)c2nc1N[C@@H]1CC[C@H](O)C1 [Compound 189]
≤ 10 nM	≤ 10 nM	CCc1nc2c(N)ncc(-c3cnn(C4CCN(C(=O)OC(C)(C)C)CC4)c3)c2nc1N[C@@H]1CC[C@H](O)C1 [Compound 190]
≤ 10 nM	≤ 10 nM	CCc1nc2c(N)ncc(-c3cnn(C4CCCCC4)c3)c2nc1N[C@@H]1CC[C@H](O)C1 [Compound 192]
≤ 10 nM	≤ 10 nM	CCc1nc2c(N)ncc(-c3cnn(C4CCC(F)(F)CC4)c3)c2nc1N[C@@H]1CC[C@H](O)C1 [Compound 193]
≤ 10 nM	≤ 10 nM	CCc1nc2c(N)ncc(-c3cnn(C)c3)c2nc1N[C@@H]1CC[C@H](O)C1 [Compound 194]
10 to 100 nM	10 to 100 nM	CCc1nc2c(N)ncc(-c3cnn(C(CC)CC)c3)c2nc1N[C@@H]1CC[C@H](O)C1 [Compound 195]
≤ 10 nM	10 to 100 nM	CCc1nc2c(N)ncc(-c3cnn(CCOC)c3)c2nc1N[C@@H]1CC[C@H](O)C1 [Compound 196]
≤ 10 nM	10 to 100 nM	CCc1nc2c(N)ncc(-c3cnn(CC(C)(C)O)c3)c2nc1N[C@@H]1CC[C@H](O)C1 [Compound 197]
≤ 10 nM	10 to 100 nM	CCc1nc2c(N)ncc(-c3cnn(CCO)c3)c2nc1N[C@@H]1CC[C@H](O)C1 [Compound 198]
≤ 10 nM	≤ 10 nM	CCc1nc2c(N)ncc(-c3cnn(C4COC4)c3)c2nc1N[C@@H]1CC[C@H](O)C1 [Compound 199]
≤ 10 nM	≤ 10 nM	CCc1nc2c(N)ncc(-c3cnn(CC4COC4)c3)c2nc1N[C@@H]1CC[C@H](O)C1 [Compound 200]
≤ 10 nM	≤ 10 nM	CCc1nc2c(N)ncc(-c3cnn(C(C)C)c3)c2nc1N[C@@H]1CC[C@H](O)C1 [Compound 201]
≤ 10 nM	≤ 10 nM	CCc1nc2c(N)ncc(-c3cnn(C4CC4)c3)c2nc1N[C@@H]1CC[C@H](O)C1 [Compound 202]
≤ 10 nM	10 to 100 nM	CCc1nc2c(N)ncc(-c3cn[nH]c3)c2nc1N[C@@H]1CC[C@H](O)C1 [Compound 203]
≤ 10 nM	≤ 10 nM	CCc1nc2c(N)ncc(-c3cnn(CC4CCN(C)CC4)c3)c2nc1N[C@@H]1CC[C@H](O)C1 [Compound 204]
≤ 10 nM	≤ 10 nM	CCOCC1(COCC)CCC(n2cc(-c3cnc(N)c4nc(CC)c(N[C@@H]5CC[C@H](O)C5)nc34)cn2)CC1 [Compound 205]
